Laboratory results from patent publication US20170008921A1, “C-3 NOVEL TRITERPENONE WITH C-28 REVERSE AMIDE DERIVATIVES AS HIV INHIBITORS” (HETERO RESEARCH FOUNDATION, priority 2015, published 2017).
Where two headings read alike, the source gives them in different places.

Experiments:
HIV-1 strain 92HT599 = test: Antiviral activity against HIV-1 strain 92HT599 in MT2 cells (p24 estimation); assay type: cell-based; details: HIV-1 92HT599, ~96 hours
Experimental: MT2 cells were infected with HIV-1 strain 92HT599 (10 TCID 50/30000 cells). The infected cells were plated at the concentration of ˜30,000 cells per well in 96 well plate. Test compound was added to the micro plate in defined format with the final concentration of DMSO (vehicle) is not more than 1%. Incubation was carried out in CO2 incubator for ˜96 hours for viral infection. At the end of incubation period an aliquot from each well was taken for p24 estimation. The quantitation of p24 is an index for antiviral activity of the compound. Percent inhibition was calculated with reference to control values (vehicle controls). p24 estimation was carried out using Advance biosciences kit as per the procedure detailed by supplier.

cells = test: Cyto-toxicity (MTT assay); assay type: cell-based
pNL4-3 WT = test: Antiviral activity against pNL4-3 WT strain in MT4 cells (p24 estimation); assay type: cell-based, HIV-1; details: 4 days
Experimental: (§1) MT4 cells were Transfected with HIV-1 Plasmid (pNL4-3-WT & V7A) (Cells were incubating with required number of TCID50 of HIV-1 for 1.5 h at 37° C.). After infection, the infected cells were plated at the concentration of 3×10^4 cells per well in 96 well plate. Test compound was added to the test plate in defined format with the final concentration of DMSO is not more than 1%. Incubation was carried out in CO2 incubator for 4 days for viral infection. At the end of incubation period an aliquot from each well was taken for p24 estimation. p24 estimation was carried out using Advance biosciences kit as per the procedure detailed by supplier.

[1] = Single dose oral pharmacokinetic study; assay type: in vivo; details: Mice oral PK @30 mg/kg; plasma; vehicle 10% Solutol+20% PEG
In short: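 Rats or mice dosed orally at 30 mg/kg in 10% Solutol+20% PEG. Acetonitrile precipitation, then LC-MS/MS quantification for PK parameters.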

pNL4-3 V7A = test: Antiviral activity against pNL4-3 V7A strain in MT4 cells (p24 estimation); assay type: cell-based, HIV-1; details: 4 days
Experimental: as §1

[2] = 0% serum binding assay, read-out: IC50 0% serum
[3] = 40% serum binding assay, read-out: IC50 40% serum

IC50 (HIV-1 strain 92HT599; [2])	IC50 (HIV-1 strain 92HT599; [3])	SMILES	Cytotoxicity % viability (cells; 0.01 µM)	Cytotoxicity % viability (cells; 0.1 µM)	Cytotoxicity % viability (cells; 1 µM)	Cytotoxicity % viability (cells; 0.01 μM, MTT, 4 days (Table 3))	Cytotoxicity % viability (cells; 0.1 μM, MTT, 4 days (Table 3))	Cytotoxicity % viability (cells; 1 μM, MTT, 4 days (Table 3))	IC50 (pNL4-3 WT)	AUC(0-t) [1]	Cmax [1]	IC50 (pNL4-3 V7A)
< 3 nM	< 50 nM	CC(C)C1=C2[C@H]3CC[C@@H]4[C@@]5(C)CC[C@H](OC(=O)[C@H]6C[C@@H](C(=O)O)C6(C)C)C(C)(C)[C@@H]5CC[C@@]4(C)[C@]3(C)CC[C@@]2(NC(=O)C(C)(C)N)CC1=O.Cl [Example 74, (1R,3S)-3-((((3aR,5aR,5bR,7aR,9S,11aR,11bR,13aS)-3a-(2-amino-2-methylpropanamido)-1-isopropyl-5a,5b,8,8,11a-pentamethyl-2-oxo-3,3a,4,5,5a,5b, 6,7,7a,8,9,10,1111a,11b,12,13,13a-octadecahydro-2H-cyclopenta[a]chrysen-9-yl)oxy)carbonyl)-2,2-dimethylcyclobutane-1-carboxylic acid hydrochloride]	61%	14%	19%							
< 3 nM	50 to 200 nM	CC(C)C1=C2[C@H]3CC[C@@H]4[C@@]5(C)CC[C@H](OC(=O)[C@H]6C[C@@H](C(=O)O)C6(C)C)C(C)(C)[C@@H]5CC[C@@]4(C)[C@]3(C)CC[C@@]2(NC(=O)C(C)(C)NC(=O)[C@@H]2CCCN2)CC1=O.Cl [Example 76, (1R,3S)-3-((((3aR,5aR,5bR,7aR,9S,11aR,11bR,13aS)-1-isopropyl-5a,5b,8,8,11a-pentamethyl-3a-(2-methyl-2-((S)-pyrrolidine-2-carboxamido)propanamido)-2-oxo-3,3a,4,5,5a,5b,6,77a,8,9,10,11,11a,11b,12,13,13a-octadecahydro-2H-cyclopenta[a]chrysen-9-yl)oxy)carbonyl)-2,2-dimethylcyclobutane-1-carboxylic acid hydrochloride]	59%	6%	6%							

SMILES	IC50 (HIV-1 strain 92HT599; [2])	IC50 (HIV-1 strain 92HT599; [3])	Cytotoxicity % viability (cells; 0.01 µM)	Cytotoxicity % viability (cells; 0.1 µM)	Cytotoxicity % viability (cells; 1 µM)	Cytotoxicity % viability (cells; 0.01 μM, MTT, 4 days (Table 3))	Cytotoxicity % viability (cells; 0.1 μM, MTT, 4 days (Table 3))	Cytotoxicity % viability (cells; 1 μM, MTT, 4 days (Table 3))	IC50 (pNL4-3 WT)	AUC(0-t) [1]	Cmax [1]	IC50 (pNL4-3 V7A)
CC(C)C1=C2[C@H]3CC[C@@H]4[C@@]5(C)CC[C@H](OC(=O)[C@H]6C[C@@H](C(=O)O)C6(C)C)C(C)(C)[C@@H]5CC[C@@]4(C)[C@]3(C)CC[C@@]2(NC(=O)C(C)(C)NS(=O)(=O)c2ccc(Cl)cc2)CC1=O [Example 65, (1R,3S)-3-((((3aR,5aR,5bR,7aR,9S,11aR,11bR,13aS)-3a-(2-((4-chlorophenyl)sulfonamido)-2-methylpropanamido)-1-isopropyl-5a,5b,8,8,11a-pentamethyl-2-oxo-3,3a,4,5,5a,5b,6,7,7a,8,91,111,11a,11b,12,13,13a-octadecahydro-2H-cyclopenta[a]chrysen-9-yl)oxy)carbonyl)-2,2-dimethylcyclobutane-1-carboxylic acid]	< 3 nM	< 50 nM				27%	3%	2%	> 10 nM	145.21 µg·h/mL	7383 ng/mL	> 50 nM
